The record followed here is US8431593B2, “Heteroaryl amide derivatives” (H. Lundbeck A/S, priority 2006, dated 2013).

Read-outs that look alike come from different tables or passages of the source.

In the test the target is T1, P2X7 receptor (Homo sapiens, UniProt Q99572).
T1 construct: host or cells: SH-SY5Y
T1 sequence (Q99572 1-595): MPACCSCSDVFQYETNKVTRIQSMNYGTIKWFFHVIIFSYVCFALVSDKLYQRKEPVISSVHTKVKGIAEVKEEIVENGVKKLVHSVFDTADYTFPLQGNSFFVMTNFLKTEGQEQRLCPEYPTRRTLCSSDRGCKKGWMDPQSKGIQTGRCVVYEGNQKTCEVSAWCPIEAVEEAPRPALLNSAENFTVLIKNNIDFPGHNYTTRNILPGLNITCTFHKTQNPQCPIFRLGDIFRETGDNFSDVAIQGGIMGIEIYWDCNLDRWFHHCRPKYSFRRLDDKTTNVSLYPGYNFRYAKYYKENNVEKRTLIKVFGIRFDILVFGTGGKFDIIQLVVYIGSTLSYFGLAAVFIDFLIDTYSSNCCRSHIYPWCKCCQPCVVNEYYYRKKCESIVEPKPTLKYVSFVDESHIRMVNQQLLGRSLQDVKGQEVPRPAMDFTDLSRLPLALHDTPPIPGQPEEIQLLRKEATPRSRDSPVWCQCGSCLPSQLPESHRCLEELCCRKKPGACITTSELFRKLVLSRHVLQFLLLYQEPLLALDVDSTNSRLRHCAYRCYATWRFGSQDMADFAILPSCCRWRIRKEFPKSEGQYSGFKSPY
Kind of test: P2X7 calcium mobilization assay, high throughput, antagonist activity (Example 4A). It counts as cell-based. The procedure, abridged: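 Cells plated at 100,000/well the day before were dye-loaded for 1 h, then incubated 1 h at room temperature with test compound before agonist-triggered calcium mobilization was read on FLIPR Tetra. Maximum RFU was corrected by subtracting the no-agonist control and related to the agonist-control response.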
On the technique in general: Calcium assays in cells follow changes in intracellular calcium, usually with a dye or a luminescent sensor.

Where [1] appears, read: 50% decrease in the fluorescence response of cells exposed to 80 μM 2′(3′)-O-(4-benzoyl-benzoyl)adenosine 5′-triphosphate, Example 4A, read-out: IC50.

For orientation: IC50 means the midpoint of a concentration-inhibition curve.

As to `CC(C)CNC(=O)c1cn2c(C(=O)NC[C@@H]3CC[C@H]4C[C@@H]3C4(C)C)cccc2n1` [Compound 496, 5-N-{[(1S,2R,5S)-6,6-dimethylbicyclo[3.1.1]hept-2-yl]methyl}-2-N-isobutylimidazo[1,2-a]pyridine-2,5-dicarboxamide], the IC50 under setting [1] is less than 2000 nM.

As to `CC1(C)[C@H]2CC[C@@H](CNC(=O)c3cccc4nc(C(=O)NCC5CC5)cn34)[C@@H]1C2` [Compound 497, 2-N-(cyclopropylmethyl)-5-N-{[(1S,2R,5S)-6,6-dimethylbicyclo[3.1.1]hept-2-yl]methyl}imidazo[1,2-a]pyridine-2,5-dicarboxamide], under setting [1], the IC50 was less than 2000 nM.

`CCCN(C)C(=O)CNC(=O)c1cn2c(C(=O)NC[C@@H]3CC[C@H]4C[C@@H]3C4(C)C)cccc2n1` [Compound 505, 5-N-{[(1S,2R,5S)-6,6-dimethylbicyclo[3.1.1]hept-2-yl]methyl}-2-N-{2-[methyl(propyl)amino]-2-oxoethyl}imidazo[1,2-a]pyridine-2,5-dicarboxamide]: under setting [1], the half-maximal inhibitory concentration (IC50) is less than 2000 nM.

As for `CC(C)C[C@@H](NC(=O)c1cn2c(C(=O)NC[C@@H]3CC[C@H]4C[C@@H]3C4(C)C)cccc2n1)C(N)=O` [Compound 514, 2-N-[(1R)-1-carbamoyl-3-methylbutyl]-5-N-{[(1S,2R,5S)-6,6-dimethylbicyclo[3.1.1]hept-2-yl]methyl} imidazo[1,2-a]pyridine-2,5-dicarboxamide], the IC50 under setting [1] was less than 2000 nM.

Turning to `CC(C)C[C@H](NC(=O)c1cn2c(C(=O)NC[C@@H]3CC[C@H]4C[C@@H]3C4(C)C)cccc2n1)C(N)=O` [Compound 515, 2-N-[(1S)-1-carbamoyl-3-methylbutyl]-5-N-{[(1S,2R,5S)-6,6-dimethylbicyclo [3.1.1]hept-2-yl]methyl} imidazo[1,2-a]pyridine-2,5-dicarboxamide], the IC50 under setting [1] is less than 2000 nM.

For the compound `CC1(C)[C@H]2CC[C@@H](CNC(=O)c3cccc4nc(C(=O)NC5(CO)CCCC5)cn34)[C@@H]1C2` [Compound 518, 5-N-{[(1S,2R,5S)-6,6-dimethylbicyclo[3.1.1]hept-2-yl]methyl}-2-N-[1-(hydroxymethyl)cyclopentyl] imidazo[1,2-a]pyridine-2,5-dicarboxamide], under setting [1], the IC50 is less than 2000 nM.

For `CC1(C)[C@H]2CC[C@@H](CNC(=O)c3cccc4nc(C(=O)N[C@@H]5CCCC[C@H]5O)cn34)[C@@H]1C2` [Compound 519, 5-N-{[(1S,2R,5S)-6,6-dimethylbicyclo[3.1.1]hept-2-yl]methyl}-2-N-[(1R,2R)-2-hydroxycyclohexyl] imidazo[1,2-a]pyridine-2,5-dicarboxamide], the IC50 under setting [1] is less than 2000 nM.

Turning to `CC(C)(CO)NC(=O)c1cn2c(C(=O)NC[C@@H]3CC[C@H]4C[C@@H]3C4(C)C)cccc2n1` [Compound 520, 5-N-{[(1S,2R,5S)-6,6-dimethylbicyclo[3.1.1]hept-2-yl]methyl}-2-N-(2-hydroxy-1,1-dimethylethyl)imidazo[1,2-a]pyridine-2,5-dicarboxamide], the IC50 was less than 2000 nM.

As for `CC(C)(C)[C@@H](CO)NC(=O)c1cn2c(C(=O)NC[C@@H]3CC[C@H]4C[C@@H]3C4(C)C)cccc2n1` [Compound 522, 5-N-{[(1S,2R,5S)-6,6-dimethylbicyclo[3.1.1]hept-2-yl]methyl}-2-N-[(1S)-1-(hydroxymethyl)-2,2-dimethylpropyl] imidazo[1,2-a] pyridine-2,5-dicarboxamide], the IC50 under setting [1] is less than 2000 nM.

`CC(C)(C)C(O)CNC(=O)c1cn2c(C(=O)NC[C@@H]3CC[C@H]4C[C@@H]3C4(C)C)cccc2n1` (stereo partly drawn) [Compound 528, 5-N-{[(1S,2R,5S)-6,6-dimethylbicyclo[3.1.1]hept-2-yl]methyl}-2-N-(2-hydroxy-3,3-dimethylbutyl)imidazo [1,2-a]pyridine-2,5-dicarboxamide]: under setting [1], the IC50 is less than 2000 nM.

Consider `O=C(NCC12CC3CC(CC(C3)C1)C2)c1cccc2nc(C(=O)N3CCOCC3)cn12` [Compound 529, N-(adamantan-1-ylmethyl)-2-(morpholin-4-ylcarbonyl)imidazo[1,2-a]pyridine-5-carboxamide], for which the IC50 under setting [1] was less than 2000 nM.

`Cn1ccnc1SCc1cn2c(C(=O)NCC34CC5CC(CC(C5)C3)C4)cccc2n1` [Compound 530, N-(adamantan-1-ylmethyl)-2-{[(1-methyl-1H-imidazol-2-yl)thio]methyl}imidazo [1,2-a]pyridine-5-carboxamide]: the IC50 under setting [1] was less than 2000 nM.

For `O=C(NCC12CC3CC(CC(C3)C1)C2)c1cccc2nc(CC(=O)N3CC[C@@H](O)C3)cn12` [Compound 531, N-(adamantan-1-ylmethyl)-2-{2-[(3R)-3-hydroxypyrrolidin-1-yl]-2-oxoethyl}imidazo[1,2-a]pyridine-5-carboxamide], the IC50 under setting [1] was less than 2000 nM.

As to `Cn1nnnc1SCc1cn2c(C(=O)NCC34CC5CC(CC(C5)C3)C4)cccc2n1` [Compound 532, N-(adamantan-1-ylmethyl)-2-{[(1-methyl-1H-tetrazol-5-yl)thio]methyl}imidazo [1,2-a]pyridine-5-carboxamide], under setting [1], the IC50 was less than 2000 nM.

Consider `CCOC(=O)Cc1cn2c(C(=O)NCC(CC(C)C)c3cccnc3)cccc2n1` (stereo not shown) [Compound 533, ethyl {5-[(4-methyl-2-pyridin-3-ylpentyl)carbamoyl]imidazo[1,2-a]pyridin-2-yl}acetate], for which the IC50 under setting [1] was less than 2000 nM.

Turning to `CCNCc1cn2c(C(=O)NCC34CC5CC(CC(C5)C3)C4)cccc2n1` [Compound 534, N-(adamantan-1-ylmethyl)-2-[(ethylamino)methyl] imidazo[1,2-a]pyridine-5-carboxamide], the IC50 under setting [1] was less than 2000 nM.

In the case of `CC(CO)c1cn2c(C(=O)NCC34CC5CC(CC(C5)C3)C4)cccc2n1` (stereo not shown) [Compound 535, N-(adamantan-1-ylmethyl)-2-(2-hydroxy-1-methylethyl)imidazo[1,2-a]pyridine-5-carboxamide], under setting [1], the IC50 is less than 2000 nM.

As for `O=C(NCC12CC3CC(CC(C3)C1)C2)c1cccc2nc(CC(=O)N3CCSCC3)cn12` [Compound 536, N-(adamantan-1-ylmethyl)-2-(2-oxo-2-thiomorpholin-4-ylethyl)imidazo[1,2-a]pyridine-5-carboxamide], the IC50 under setting [1] was less than 2000 nM.

Take `O=C(NCC12CC3CC(CC(C3)C1)C2)c1cccc2nc(CN3CCS(=O)(=O)CC3)cn12` [Compound 537, N-(adamantan-1-ylmethyl)-2-[(1,1-dioxidothiomorpholin-4-yl)methyl]imidazo[1,2-a]pyridine-5-carboxamide]: under setting [1], the half-inhibitory concentration (IC50) was less than 2000 nM.

Regarding `O=C(NCC12CC3CC(CC(C3)C1)C2)c1cccc2nc(CN3C[C@H](O)CC3=O)cn12` [Compound 538, N-(adamantan-1-ylmethyl)-2-{[(4R)-4-hydroxy-2-oxopyrrolidin-1-yl]methyl}imidazo[1,2-a]pyridine-5-carboxamide], under setting [1], the 50% inhibitory concentration (IC50) was less than 2000 nM.

`CC(C)(CO)c1cn2c(C(=O)NCC34CC5CC(CC(C5)C3)C4)cccc2n1` [Compound 539, N-(adamantan-1-ylmethyl)-2-(2-hydroxy-1,1-dimethylethyl)imidazo [1,2-a]pyridine-5-carboxamide]: the IC50 under setting [1] was less than 2000 nM.

For the compound `O=C(CC12CC3CC(CC(C3)C1)C2)Nc1cccc2nc(CSc3nnc[nH]3)cn12` [Compound 540, 2-adamantan-1-yl-N-{2-[(4H-1,2,4-triazol-3-ylthio)methyl]imidazo [1,2-a]pyridin-5-yl}acetamide], under setting [1], the IC50 is less than 2000 nM.

For `CCOC(=O)C(=O)N(CC)Cc1cn2c(C(=O)NCC34CC5CC(CC(C5)C3)C4)cccc2n1` [Compound 541, ethyl [({5-[(adamantan-1-ylmethyl)carbamoyl]imidazo[1,2-a]pyridin-2-yl}methyl)(ethyl)amino] (oxo)acetate], the IC50 under setting [1] was less than 2000 nM.

With `O=C(NCC12CC3CC(CC(C3)C1)C2)c1cccc2nc(CSc3ncc[nH]3)cn12` [Compound 542, N-(adamantan-1-ylmethyl)-2-[(1H-imidazol-2-ylthio)methyl] imidazo [1,2-a]pyridine-5-carboxamide], under setting [1], the IC50 is less than 2000 nM.

Regarding `O=C(O)CCNC(=O)c1cn2c(C(=O)NCC34CC5CC(CC(C5)C3)C4)cccc2n1` [Compound 544, N-({5-[(adamantan-1-ylmethyl)carbamoyl)imidazo[1,2-a]pyridin-2-yl}carbonyl)-beta-alanine], under setting [1], the IC50 was less than 2000 nM.

`CC(C)CC(CNC(=O)c1cccc2nc(CCO)cn12)c1cccnc1` (stereo not shown) [Compound 545, 2-(2-hydroxyethyl)-N-(4-methyl-2-pyridin-3-ylpentyl)imidazo[1,2-a]pyridine-5-carboxamide]: the 50% inhibitory concentration (IC50) under setting [1] was less than 2000 nM.

For `CCN(Cc1cn2c(C(=O)NCC34CC5CC(CC(C5)C3)C4)cccc2n1)C(=O)C(=O)O` [Compound 546, [({5-[(adamantan-1-ylmethyl)carbamoyl]imidazo[1,2-a]pyridin-2-yl}methyl)(ethyl)amino] (oxo)acetic acid], the 50% inhibitory concentration (IC50) under setting [1] was less than 2000 nM.

With `CC(C(=O)O)c1cn2c(C(=O)NCC34CC5CC(CC(C5)C3)C4)cccc2n1` (stereo not shown) [Compound 547, 2-{5-[(adamantan-1-ylmethyl)carbamoyl]imidazo[1,2-a]pyridin-2-yl} propanoic acid], the IC50 under setting [1] is less than 2000 nM.
